What was measured:
[1] = Radioprotective activity in rat thymocytes assessed as radio-modification factor pretreated at 1 uM followed by 2 Gy X-ray irradiation measured after 4 hrs by flow cytometric analysis relative to control; format: ADME, cell-based; conditions: thymocyte
[2] = Radioprotective activity in rat thymocytes assessed as radio-modification factor pretreated at 10 uM followed by 2 Gy X-ray irradiation measured after 4 hrs by flow cytometric analysis relative to control; format: ADME, cell-based; conditions: thymocyte
[3] = Radioprotective activity in rat thymocytes assessed as radio-modification factor pretreated at 100 uM followed by 2 Gy X-ray irradiation measured after 4 hrs by flow cytometric analysis relative to control; format: ADME, cell-based; conditions: thymocyte
Thymocyte [4] = assay: Toxicity in rat thymocytes assessed as increase in cell death at 1 uM measured after 4 hrs by flow cytometric analysis relative to control; format: cell-based
Thymocyte [5] = assay: Toxicity in rat thymocytes assessed as increase in cell death at 10 uM measured after 4 hrs by flow cytometric analysis relative to control; format: cell-based
Thymocyte [6] = assay: Toxicity in rat thymocytes assessed as increase in cell death at 100 uM measured after 4 hrs by flow cytometric analysis relative to control; format: cell-based
Thymocyte [7] = assay: Toxicity in rat thymocytes assessed as increase in cell death at 1000 uM measured after 4 hrs by flow cytometric analysis relative to control; format: cell-based
[8] = Stability of the compound; format: physicochemical
[9] = Radioprotective activity in rat thymocytes assessed as radio-modification factor pretreated at 1000 uM followed by 2 Gy X-ray irradiation measured after 4 hrs by flow cytometric analysis relative to control; format: ADME, cell-based; conditions: thymocyte

Row | Structure (SMILES) | Ratio [1] | Ratio [2] | Ratio [3] | Stability [8] | Ratio [9] | Ratio (Thymocyte [4]) | Ratio (Thymocyte [5]) | Ratio (Thymocyte [6]) | Ratio (Thymocyte [7])
1 | Oc1cc(O)cc(/C=C/c2ccccc2O)c1 | 1.2 | 1.3 | 0.4 |  |  | < 5 | < 5 | < 5 | > 10
2 | COc1cc(/C=C/c2ccc(C)cc2)cc(OC)c1 |  |  |  | Unstable |  |  |  |  | 
3 | COc1ccc(/C=C/c2ccc(OC)c(OC)c2)cc1OC | 0.4 | 1 | 0.4 |  | 0.3 | < 5 | < 5 | 5 | 5
4 | COc1ccc(/C=C/c2cccc(OC)c2)cc1 | 1 | 1.1 | 1.1 |  | 1.5 | < 5 | < 5 | < 5 | < 5
5 | Oc1cc(O)cc(/C=C/c2ccc(Cl)cc2)c1 | 0.56 | 0.47 |  |  |  | 5 | 5 | > 10 | > 10
6 | Oc1ccc(/C=C/c2ccccc2O)cc1 | 0.4 | 0.7 | 0.5 |  |  | 5 | < 5 | 5 | > 10
7 | Cc1ccc(/C=C/c2cc(O)cc(O)c2)cc1 | 0.94 | 1.06 | 0.11 |  |  | < 5 | < 5 | > 10 | < 5
8 | Oc1cc(O)cc(/C=C/c2ccc(F)cc2)c1 | 0.89 | 0.81 | -0.22 |  |  | < 5 | < 5 | < 5 | > 10
9 | COc1ccc(/C=C/c2ccc(OC)cc2)cc1 | 1.1 | 1 | 1.3 |  | 1.5 | < 5 | < 5 | < 5 | < 5
10 | COc1cc(/C=C/c2ccccc2)cc(OC)c1 [3,5-O-DIMETHYLPINOSYLVIN] |  |  |  | Unstable |  |  |  |  | 
11 | COc1cc(/C=C/c2ccc(Cl)cc2)cc(OC)c1 |  |  |  | Unstable |  |  |  |  | 
12 | Oc1ccc(/C=C/c2cccc(O)c2)cc1 [(E)-3,4'-STILBENDIOL] | 1.4 | 1.2 | 1.6 |  | 0.6 | < 5 | < 5 | < 5 | < 5
13 | COc1ccc(/C=C/c2cc(OC)cc(OC)c2)cc1 [TRISMETHOXYRESVERATROL] | 0.82 | 0.85 | 0.31 |  | -0.15 | < 5 | < 5 | < 5 | 5
14 | COc1cccc(/C=C/c2cc(OC)cc(OC)c2)c1 | 1.4 | 1.2 | 1.1 |  | 0.2 | < 5 | < 5 | < 5 | < 5

Now from value to compound, other results behind:

Row | Ratio [1] | Ratio [2] | Ratio [3] | Stability [8] | Ratio [9] | Structure (SMILES) | Ratio (Thymocyte [4]) | Ratio (Thymocyte [5]) | Ratio (Thymocyte [6]) | Ratio (Thymocyte [7])
15 |  |  |  | Unstable |  | Oc1ccc(/C=C/c2ccc(O)c(O)c2)cc1O |  |  |  | 
16 |  |  |  | Unstable |  | CC(=O)Nc1ccc(/C=C/c2cc(O)cc(O)c2)cc1 |  |  |  | 
17 |  |  |  | Unstable |  | Nc1ccc(/C=C/c2cc(O)cc(O)c2)cc1 |  |  |  | 
18 | 0.8 | 1 | 0.7 |  | 0.5 | COc1ccc(/C=C/c2ccc(OC)c(OC)c2)cc1 | < 5 | < 5 | < 5 | 5
19 |  |  |  | Unstable |  | Oc1cc(O)cc(/C=C/c2ccccc2)c1 [PINOSYLVIN] |  |  |  | 
20 | 1.34 | 1.26 |  |  |  | COc1cc(/C=C/c2ccc(F)cc2)cc(OC)c1 | < 5 | < 5 | > 10 | > 10
21 | 1.7 |  |  |  |  | Oc1ccc(/C=C/c2cc(O)ccc2O)cc1 | < 5 | > 10 | > 10 | > 10
22 | 0.8 | 0.6 | 0.3 |  | 0.1 | COc1cc(/C=C/c2ccccc2OC)cc(OC)c1 | < 5 | < 5 | < 5 | 5
23 | 0.93 | 1.06 | 0.59 |  | -0.34 | Oc1ccc(/C=C/c2cc(O)cc(O)c2)cc1 [RESVERATROL] | < 5 | < 5 | < 5 | < 5
24 | 0.7 | 1.2 | 0.9 |  | 0.7 | COc1ccc(/C=C/c2cc(OC)ccc2OC)cc1 | < 5 | < 5 | < 5 | < 5
25 | 0.6 | 1.1 | 1.2 |  | 1.1 | Oc1ccc(/C=C/c2ccc(O)cc2)cc1 [TRANS-4,4'-DIHYDROXYSTILBENE] | < 5 | < 5 | < 5 | < 5
26 | 1.14 | 1.01 | 0.91 |  |  | CC(=O)Oc1ccc(/C=C/c2cc(O)cc(O)c2)cc1 | < 5 | < 5 | < 5 | > 10
27 | 0.9 | 0.9 | 0.3 |  |  | Oc1cccc(/C=C/c2cc(O)cc(O)c2)c1 | < 5 | < 5 | < 5 | > 10
28 | 2.2 | 1.3 | -0.3 |  |  | Oc1ccc(/C=C/c2ccc(O)c(O)c2)cc1 | < 5 | < 5 | < 5 | > 10
29 | 1.25 | 1.21 | 0.99 |  | 1.05 | COc1cc(/C=C/c2ccc(NC(C)=O)cc2)cc(OC)c1 | < 5 | < 5 | < 5 | < 5
30 | 1.3 | 1.3 | -0.2 |  | 0.2 | COc1ccc(/C=C/c2ccccc2OC)cc1 | < 5 | < 5 | < 5 | 5
31 | 0.99 | 0.86 | 0.52 |  | 0.07 | COc1cc(/C=C/c2ccc(OC(C)=O)cc2)cc(OC)c1 | < 5 | 5 | 5 | 5

From ChEMBL document CHEMBL3826897, “A facile and rapid access to resveratrol derivatives and their radioprotective activity” (Bioorg Med Chem Lett, 2016)
